Experimental data: patent US5024994A, “Renin inhibitors IV” (Warner-Lambert Company, priority 1988, dated 1991)

Biological target: T1, renin (Homo sapiens, UniProt P00797)
T1 sequence (P00797 67-406): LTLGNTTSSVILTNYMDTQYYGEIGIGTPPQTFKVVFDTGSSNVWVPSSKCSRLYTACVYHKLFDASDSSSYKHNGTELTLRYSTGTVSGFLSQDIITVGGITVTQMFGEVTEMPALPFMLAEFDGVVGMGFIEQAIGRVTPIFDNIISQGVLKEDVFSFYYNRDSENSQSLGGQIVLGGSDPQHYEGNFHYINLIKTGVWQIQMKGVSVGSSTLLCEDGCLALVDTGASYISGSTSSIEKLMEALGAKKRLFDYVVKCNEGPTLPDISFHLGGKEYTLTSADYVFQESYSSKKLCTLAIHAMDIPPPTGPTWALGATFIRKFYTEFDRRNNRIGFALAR
Assay: in vitro renin inhibitory activity, radioimmunoassay for angiotensin I
Type: biochemical
Conditions: not given
Experimental: The effectiveness of the aforementioned compounds is determined by a test for in vitro renin inhibitory activity. This activity is determined by a standard radioimmunoassay for angiotensin I. In this assay the enzyme, renin, incubated for two hours at 37° in the presence of a substrate, angiotensinogen, generates the product, angiotensin I. Test compounds are added to the incubation mixture.

First: CCC(C)CNC(=O)C[C@H](O)[C@H](CC(C)C)NC(=O)[C@H](CCCCNP(=O)(Oc1ccccc1)Oc1ccccc1)NC(=O)C(Cc1cccc2ccccc12)Cc1cccc2ccccc12 (stereo partly shown)
Second: CC[C@H](C)CNC(=O)C[C@H](O)[C@H](CC(C)C)NC(=O)[C@H](CCCCn1cccc1)NC(=O)C(Cc1cccc2ccccc12)Cc1cccc2ccccc12
The IC50 of the first is 85-fold higher: 7.4 µM for the first, 0.087 µM for the second. The second is the more potent here.

Going from `CCC(C)CNC(=O)C[C@H](O)[C@H](CC(C)C)NC(=O)[C@H](CCCCNC(=NC#N)SC)NC(=O)C(Cc1cccc2ccccc12)Cc1cccc2ccccc12` (stereo partly shown) to `CC[C@H](C)CNC(=O)C[C@H](O)[C@H](CC(C)C)NC(=O)C(CCCCCCNC(=S)NC)NC(=O)C(Cc1cccc2ccccc12)Cc1cccc2ccccc12` (stereo partly shown), the IC50 rises from 0.019 µM to 0.045 µM (2.4-fold).

Compared with `CC(C)C[C@H](NC(=O)C[C@H](O)[C@H](CC(C)C)NC(=O)[C@H](CCCCNC(=N)N[N+](=O)[O-])NC(=O)C(Cc1cccc2ccccc12)Cc1cccc2ccccc12)C(=O)NCc1ccccc1`, `CC(C)C[C@H](NC(=O)C[C@H](O)[C@H](CC(C)C)NC(=O)C(CCCCCNC(=N)N[N+](=O)[O-])NC(=O)C(Cc1cccc2ccccc12)Cc1cccc2ccccc12)C(=O)NCc1ccccc1` (stereo partly shown) is 7.3-fold higher in IC50: 0.015 µM for the first, 0.11 µM for the second. The first is the more potent here.

First: CNC(=S)NCCCC[C@H](NC(=O)C(Cc1cccc2ccccc12)Cc1cccc2ccccc12)C(=O)N[C@@H](CC(C)C)[C@@H](O)CC(=O)N[C@@H](CC(C)C)C(=O)NCc1ccccc1
Second: CC[C@H](C)CNC(=O)C[C@H](O)[C@H](CC(C)C)NC(=O)C(CC#CCNC(=O)OCc1ccccc1)NC(=O)C(Cc1cccc2ccccc12)Cc1cccc2ccccc12 (stereo partly shown)
The IC50 of the first is 2.5-fold lower: 0.06 µM for the first, 0.15 µM for the second.

`CCC(C)CNC(=O)C[C@H](O)[C@H](CC(C)C)NC(=O)C(CCCCCNC(=N)N[N+](=O)[O-])NC(=O)C(Cc1cccc2ccccc12)Cc1cccc2ccccc12` (stereo partly shown) and `CC[C@H](C)CNC(=O)C[C@H](O)[C@H](CC(C)C)NC(=O)C(NC(=O)C(Cc1cccc2ccccc12)Cc1cccc2ccccc12)C(=O)OC` (stereo partly shown) are within 1.5-fold of each other in IC50: 0.026 µM for the first, 0.023 µM for the second.

Going from `CCC(C)CNC(=O)C[C@H](O)[C@H](CC(C)C)NC(=O)C(NC(=O)C(CC(=O)N1CCOCC1)Cc1cccc2ccccc12)C(=O)OC` (stereo partly shown) to `CC[C@H](C)CNC(=O)C[C@H](O)[C@H](CC(C)C)NC(=O)C(NC(=O)[C@H](Cc1ccccc1)NC(=O)OC(C)(C)C)C(=O)N1CCCC1` (stereo partly shown), the IC50 rises from 0.098 µM to 0.4 µM (4.1-fold). The first is the more potent here.

Going from `CNC(=S)NCCCC[C@H](NC(=O)C(Cc1ccccc1)CS(=O)(=O)C(C)(C)C)C(=O)N[C@@H](CC1CCCCC1)[C@@H](O)CC(=O)NCCN1CCOCC1` (stereo partly shown) to `CCC(C)CNC(=O)C[C@H](O)[C@H](CC(C)C)NC(=O)[C@H](CC#N)NC(=O)[C@H](Cc1ccccc1)NC(=O)OC(C)(C)C` (stereo partly shown), the IC50 rises from 0.027 µM to 0.26 µM (9.6-fold).

In the case of `CCC(C)CNC(=O)C[C@H](O)[C@H](CC(C)C)NC(=O)C(C/C=C/CNC(=S)NC)NC(=O)C(Cc1cccc2ccccc12)Cc1cccc2ccccc12` (stereo partly shown), the IC50 is reported as 0.041 µM.

Same assay, conditions: at 10^-6 molar concentration; read-out: percent inhibition of renin activity

First: CC[C@H](C)CNC(=O)C[C@H](O)[C@H](CC(C)C)NC(=O)C(CCCCCCNC(=O)OCc1ccccc1)NC(=O)C(Cc1cccc2ccccc12)Cc1cccc2ccccc12 (stereo partly shown)
Second: CC[C@H](C)CNC(=O)C[C@H](O)[C@H](CC(C)C)NC(=O)C(NC(=O)C(Cc1cccc2ccccc12)Cc1cccc2ccccc12)C(N)=O (stereo partly shown)
The inhibition at 1 µM of the first is higher: 28% for the first, 24% for the second.

Work on `CC[C@H](C)CNC(=O)C[C@H](O)[C@H](CC(C)C)NC(=O)C(NC(=O)C(Cc1cccc2ccccc12)Cc1cccc2ccccc12)C(=O)NC` (stereo partly shown) yielded an inhibition at 1 µM of 26%.

Same assay, conditions: read-out: IC50

Compared with `CC[C@H](C)CNC(=O)C[C@H](O)[C@H](CC(C)C)NC(=O)[C@H](CCCCNC(=S)NC)NC(=O)C(Cc1cccc2ccccc12)Cc1cccc2ccccc12`, `CCC(C)CNC(=O)C[C@H](O)[C@H](CC(C)C)NC(=O)C(CCCCCNC(=S)NC)NC(=O)C(Cc1cccc2ccccc12)Cc1cccc2ccccc12` (stereo partly shown) is 4.2-fold higher in IC50: 0.0096 µM for the first, 0.04 µM for the second.

Compared with `CCC(C)CNC(=O)C[C@H](O)[C@H](CC(C)C)NC(=O)[C@H](CCCCNC(=O)NC)NC(=O)C(Cc1cccc2ccccc12)Cc1cccc2ccccc12` (stereo partly shown), `CC[C@H](C)CNC(=O)C[C@H](O)[C@H](CC(C)C)NC(=O)[C@H](CCCNC(=O)NC)NC(=O)C(Cc1cccc2ccccc12)Cc1cccc2ccccc12` is 31-fold higher in IC50: 0.029 µM for the first, 0.89 µM for the second. The first is the more potent here.

`CCCCNC(=S)NCCCC[C@H](NC(=O)C(Cc1cccc2ccccc12)Cc1cccc2ccccc12)C(=O)N[C@@H](CC(C)C)[C@@H](O)CC(=O)NC[C@@H](C)CC` and `CCCCNC(=S)NCCCC[C@H](NC(=O)C(Cc1cccc2ccccc12)Cc1cccc2ccccc12)C(=O)N[C@@H](CC(C)C)[C@@H](O)CC(=O)NCC(C)CC` (stereo partly shown) are within 1.5-fold of each other in IC50: 0.046 µM for the first, 0.058 µM for the second.

First: CC[C@H](C)CNC(=O)C[C@H](O)[C@H](CC(C)C)NC(=O)[C@H](CCCCNC(=S)NCC(C)(C)C)NC(=O)C(Cc1cccc2ccccc12)Cc1cccc2ccccc12
Second: CCC(C)CNC(=O)C[C@H](O)[C@H](CC(C)C)NC(=O)[C@H](CCCCNC(=S)NC(C)(C)CC)NC(=O)C(Cc1cccc2ccccc12)Cc1cccc2ccccc12 (stereo partly shown)
The IC50 of the first is 60-fold higher: 0.45 µM for the first, 0.0075 µM for the second.

Going from `CCC(C)CNC(=O)C[C@H](O)[C@H](CC1CCCCC1)NC(=O)[C@H](CCCCNC(=N)N[N+](=O)[O-])NC(=O)C(Cc1cccc2ccccc12)Cc1cccc2ccccc12` (stereo partly shown) to `CC[C@H](C)CNC(=O)C[C@H](O)[C@H](CC(C)C)NC(=O)[C@H](CCCCNC(N)=O)NC(=O)C(Cc1cccc2ccccc12)Cc1cccc2ccccc12`, the IC50 rises from 0.015 µM to 0.05 µM (3.3-fold). The first is the more potent here.

Compared with `CCC(C)CNC(=O)C[C@H](O)[C@H](CC(C)C)NC(=O)[C@H](CCCCNC(N)=NC#N)NC(=O)C(Cc1cccc2ccccc12)Cc1cccc2ccccc12` (stereo partly shown), `CC[C@H](C)CNC(=O)C[C@H](O)[C@H](CC(C)C)NC(=O)C(CCCCCCNC(N)=NC#N)NC(=O)C(Cc1cccc2ccccc12)Cc1cccc2ccccc12` (stereo partly shown) is 2.5-fold higher in IC50: 0.018 µM for the first, 0.045 µM for the second.

Compared with `CCC(C)CNC(=O)C[C@H](O)[C@H](CC(C)C)NC(=O)[C@H](CCCCNC(=NC#N)NC)NC(=O)C(Cc1cccc2ccccc12)Cc1cccc2ccccc12` (stereo partly shown), `CC[C@H](C)CNC(=O)C[C@H](O)[C@H](CC(C)C)NC(=O)[C@H](CCCNC(=S)NC)NC(=O)C(Cc1cccc2ccccc12)Cc1cccc2ccccc12` is 19-fold higher in IC50: 0.015 µM for the first, 0.28 µM for the second. The first is the more potent here.

Compared with `CCC(C)CNC(=O)C[C@H](O)[C@H](CC(C)C)NC(=O)[C@H](CCCCn1cccc1)NC(=O)C(Cc1cccc2ccccc12)Cc1cccc2ccccc12` (stereo partly shown), `CC[C@H](C)CNC(=O)C[C@H](O)[C@H](CC(C)C)NC(=O)C(CCCCCC(=O)NC)NC(=O)C(Cc1cccc2ccccc12)Cc1cccc2ccccc12` (stereo partly shown) is 2.2-fold higher in IC50: 0.54 µM for the first, 1.2 µM for the second.

`CNC(=O)NCCCC[C@H](NC(=O)C(Cc1cccc2ccccc12)Cc1cccc2ccccc12)C(=O)N[C@@H](CC(C)C)[C@@H](O)CC(=O)N[C@@H](CC(C)C)C(=O)NCc1ccccc1` and `CC(C)C[C@H](NC(=O)C[C@H](O)[C@H](CC(C)C)NC(=O)C(CCCCCCNC(=O)OCc1ccccc1)NC(=O)C(Cc1cccc2ccccc12)Cc1cccc2ccccc12)C(=O)NCc1ccccc1` (stereo partly shown) are within 1.5-fold of each other in IC50: 0.084 µM for the first, 0.059 µM for the second.

Compared with `CCC(C)CNC(=O)C[C@H](O)[C@H](CC(C)C)NC(=O)C(CCCCCNC(=O)OCc1ccccc1)NC(=O)C(Cc1cccc2ccccc12)Cc1cccc2ccccc12` (stereo partly shown), `CC[C@H](C)CNC(=O)C[C@H](O)[C@H](CC(C)C)NC(=O)[C@H](CCCCNC(=O)CSC)NC(=O)C(Cc1cccc2ccccc12)Cc1cccc2ccccc12` is 3-fold lower in IC50: 0.29 µM for the first, 0.098 µM for the second.

Going from `CC[C@H](C)CNC(=O)C[C@H](O)[C@H](CC(C)C)NC(=O)C(NC(=O)[C@H](Cc1ccccc1)NC(=O)OC(C)(C)C)C(=O)OC` (stereo partly shown) to `CC[C@H](C)CNC(=O)C[C@H](O)[C@H](CC(C)C)NC(=O)C(CC#N)NC(=O)[C@H](Cc1ccccc1)NC(=O)CC(C)C` (stereo partly shown), the IC50 rises from 0.041 µM to 0.57 µM (14-fold). The first is the more potent here.

Going from `CC[C@H](C)CNC(=O)C[C@H](O)[C@H](CC(C)C)NC(=O)C(NC(=O)C(Cc1cccc2ccccc12)Cc1cccc2ccccc12)C(=O)NCCc1cnc[nH]1` (stereo partly shown) to `CCOC(=O)C(NC(=O)C(Cc1cccc2ccccc12)Cc1cccc2ccccc12)C(=O)N[C@@H](CC(C)C)[C@@H](O)CC(=O)NC[C@@H](C)CC` (stereo partly shown), the IC50 falls from 3.1 µM to 0.023 µM (130-fold). The second is the more potent here.

Going from `CC[C@H](C)CNC(=O)C[C@H](O)[C@H](CC(C)C)NC(=O)C(NC(=O)C(Cc1cccc2ccccc12)Cc1cccc2ccccc12)C(=O)N(C)C` (stereo partly shown) to `CCC(C)CNC(=O)C[C@H](O)[C@H](CC(C)C)NC(=O)C(NC(=O)C(Cc1cccc2ccccc12)Cc1cccc2ccccc12)C(=O)OC(C)C` (stereo partly shown), the IC50 falls from 0.2 µM to 0.033 µM (6.1-fold).

Compared with `CC[C@H](C)CNC(=O)C[C@H](O)[C@H](CC(C)C)NC(=O)C(Cc1nc2ccccc2[nH]1)NC(=O)C(Cc1cccc2ccccc12)Cc1cccc2ccccc12` (stereo partly shown), `CCC(C)CNC(=O)C[C@H](O)[C@H](CC(C)C)NC(=O)C(C/C=C\CNC(C)=O)NC(=O)C(Cc1cccc2ccccc12)Cc1cccc2ccccc12` (stereo partly shown) is 28-fold lower in IC50: 2.8 µM for the first, 0.1 µM for the second. The second is the more potent here.

First: CC(C)(C)OC(=O)NCC#CCC(NC(=O)C(Cc1cccc2ccccc12)Cc1cccc2ccccc12)C(=O)N[C@@H](CC1CCCCC1)[C@@H](O)CC(=O)NCCN1CCOCC1 (stereo partly shown)
Second: CC(=O)NCC#CCC(NC(=O)C(Cc1cccc2ccccc12)Cc1cccc2ccccc12)C(=O)N[C@@H](CC1CCCCC1)[C@@H](O)CC(=O)NCCN1CCOCC1 (stereo partly shown)
The IC50 of the first is 81-fold higher: 0.7 µM for the first, 0.0086 µM for the second.

First: O=CNCC#CCC(NC(=O)C(Cc1cccc2ccccc12)Cc1cccc2ccccc12)C(=O)N[C@@H](CC1CCCCC1)[C@@H](O)CC(=O)NCCN1CCOCC1 (stereo partly shown)
Second: CNC(=S)NCC#CCC(NC(=O)C(Cc1cccc2ccccc12)Cc1cccc2ccccc12)C(=O)N[C@@H](CC1CCCCC1)[C@@H](O)CC(=O)NCCN1CCOCC1 (stereo partly shown)
The IC50 of the first is 6-fold lower: 0.008 µM for the first, 0.048 µM for the second.

First: N=C(NCC#CCC(NC(=O)C(Cc1cccc2ccccc12)Cc1cccc2ccccc12)C(=O)N[C@@H](CC1CCCCC1)[C@@H](O)CC(=O)NCCN1CCOCC1)N[N+](=O)[O-] (stereo partly shown)
Second: CC[C@H](C)CNC(=O)C[C@H](O)[C@H](CC(C)C)NC(=O)[C@H](CCCCNC(=O)CS(C)(=O)=O)NC(=O)C(Cc1cccc2ccccc12)Cc1cccc2ccccc12
The IC50 of the first is 5.7-fold lower: 0.012 µM for the first, 0.068 µM for the second.
